Test results reported in doi:10.1101/2023.11.24.568596v1 (biorxiv, 2023).
Values belong to the molecule of their own block, whether it stands above or below them.

Key:
Conditions in all cases: binder
MST3 = MST3 (Homo sapiens, UniProt Q9Y6E0)
MST4 = MST4 (Homo sapiens, UniProt Q9P289)
Erk3 = Erk3 (Homo sapiens, UniProt Q16659)
MSSK1 = MSSK1 (Homo sapiens, UniProt Q9UPE1)
HIPK2 = HIPK2 (Homo sapiens, UniProt Q9H2X6)
BRPF1 = molecular target: T1, BRPF1 (Homo sapiens, UniProt P55201)
T1 sequence (P55201 1-1214): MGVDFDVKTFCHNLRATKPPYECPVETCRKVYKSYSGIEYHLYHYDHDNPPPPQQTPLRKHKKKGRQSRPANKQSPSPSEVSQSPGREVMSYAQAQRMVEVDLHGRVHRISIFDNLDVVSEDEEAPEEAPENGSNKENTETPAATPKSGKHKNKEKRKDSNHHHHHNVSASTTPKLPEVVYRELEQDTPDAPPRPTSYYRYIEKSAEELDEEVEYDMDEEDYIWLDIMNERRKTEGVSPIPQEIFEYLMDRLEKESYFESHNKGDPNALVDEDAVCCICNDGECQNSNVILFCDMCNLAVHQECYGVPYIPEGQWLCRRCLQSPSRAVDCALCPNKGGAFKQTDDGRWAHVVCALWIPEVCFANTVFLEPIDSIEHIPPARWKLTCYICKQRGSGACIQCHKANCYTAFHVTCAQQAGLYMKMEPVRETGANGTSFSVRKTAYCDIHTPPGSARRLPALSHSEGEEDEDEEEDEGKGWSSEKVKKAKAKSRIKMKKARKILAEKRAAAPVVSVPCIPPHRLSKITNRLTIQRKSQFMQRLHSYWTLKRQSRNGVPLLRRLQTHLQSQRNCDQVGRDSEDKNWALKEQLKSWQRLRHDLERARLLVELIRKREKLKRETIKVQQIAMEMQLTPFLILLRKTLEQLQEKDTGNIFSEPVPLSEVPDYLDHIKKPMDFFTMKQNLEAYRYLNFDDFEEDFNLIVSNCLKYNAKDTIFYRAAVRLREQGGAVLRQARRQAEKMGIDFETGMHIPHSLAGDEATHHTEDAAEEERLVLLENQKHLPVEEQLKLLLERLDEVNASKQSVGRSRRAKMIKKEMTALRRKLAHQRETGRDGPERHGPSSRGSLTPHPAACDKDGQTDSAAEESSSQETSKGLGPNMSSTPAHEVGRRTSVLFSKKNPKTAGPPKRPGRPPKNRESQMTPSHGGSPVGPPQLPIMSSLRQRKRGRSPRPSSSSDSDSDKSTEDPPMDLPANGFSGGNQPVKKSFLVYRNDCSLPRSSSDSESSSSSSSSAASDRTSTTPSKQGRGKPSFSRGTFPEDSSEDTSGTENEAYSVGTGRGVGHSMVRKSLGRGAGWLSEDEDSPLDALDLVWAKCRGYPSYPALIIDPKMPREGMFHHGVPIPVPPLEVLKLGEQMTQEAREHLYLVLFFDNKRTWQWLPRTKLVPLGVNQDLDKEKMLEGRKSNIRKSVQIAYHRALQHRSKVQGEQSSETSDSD

EphB1 = molecular target: T2, EphB1 (Homo sapiens, UniProt P54762)
T2 sequence (P54762 1-984): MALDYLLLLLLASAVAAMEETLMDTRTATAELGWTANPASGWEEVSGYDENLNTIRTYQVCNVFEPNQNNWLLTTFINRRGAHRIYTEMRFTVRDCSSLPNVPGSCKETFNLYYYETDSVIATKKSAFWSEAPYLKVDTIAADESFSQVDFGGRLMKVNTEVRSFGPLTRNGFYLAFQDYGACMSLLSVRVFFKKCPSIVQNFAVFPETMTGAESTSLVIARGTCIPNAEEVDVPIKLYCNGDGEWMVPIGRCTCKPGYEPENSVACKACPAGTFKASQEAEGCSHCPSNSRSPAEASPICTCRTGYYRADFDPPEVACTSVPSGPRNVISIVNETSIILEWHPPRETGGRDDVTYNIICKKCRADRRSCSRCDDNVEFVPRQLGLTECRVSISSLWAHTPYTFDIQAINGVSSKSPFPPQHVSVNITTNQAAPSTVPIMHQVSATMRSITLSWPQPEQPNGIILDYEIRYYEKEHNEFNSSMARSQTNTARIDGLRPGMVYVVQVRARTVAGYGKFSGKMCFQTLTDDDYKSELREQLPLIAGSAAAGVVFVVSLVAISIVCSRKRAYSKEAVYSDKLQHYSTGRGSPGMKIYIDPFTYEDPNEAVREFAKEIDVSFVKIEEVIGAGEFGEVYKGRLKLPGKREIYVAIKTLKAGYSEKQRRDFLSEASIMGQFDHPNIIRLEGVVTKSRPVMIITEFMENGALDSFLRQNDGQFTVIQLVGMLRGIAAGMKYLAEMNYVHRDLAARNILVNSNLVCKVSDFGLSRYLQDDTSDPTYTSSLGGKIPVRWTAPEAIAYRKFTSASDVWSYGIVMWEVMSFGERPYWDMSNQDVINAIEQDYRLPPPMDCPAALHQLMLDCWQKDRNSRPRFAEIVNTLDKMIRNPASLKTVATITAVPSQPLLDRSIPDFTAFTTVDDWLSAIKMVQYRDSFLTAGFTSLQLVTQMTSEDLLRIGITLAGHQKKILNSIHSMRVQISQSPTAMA

EphA4 = EphA4 (Homo sapiens, UniProt P54764)
EphA4, sequence (P54764 whole entry): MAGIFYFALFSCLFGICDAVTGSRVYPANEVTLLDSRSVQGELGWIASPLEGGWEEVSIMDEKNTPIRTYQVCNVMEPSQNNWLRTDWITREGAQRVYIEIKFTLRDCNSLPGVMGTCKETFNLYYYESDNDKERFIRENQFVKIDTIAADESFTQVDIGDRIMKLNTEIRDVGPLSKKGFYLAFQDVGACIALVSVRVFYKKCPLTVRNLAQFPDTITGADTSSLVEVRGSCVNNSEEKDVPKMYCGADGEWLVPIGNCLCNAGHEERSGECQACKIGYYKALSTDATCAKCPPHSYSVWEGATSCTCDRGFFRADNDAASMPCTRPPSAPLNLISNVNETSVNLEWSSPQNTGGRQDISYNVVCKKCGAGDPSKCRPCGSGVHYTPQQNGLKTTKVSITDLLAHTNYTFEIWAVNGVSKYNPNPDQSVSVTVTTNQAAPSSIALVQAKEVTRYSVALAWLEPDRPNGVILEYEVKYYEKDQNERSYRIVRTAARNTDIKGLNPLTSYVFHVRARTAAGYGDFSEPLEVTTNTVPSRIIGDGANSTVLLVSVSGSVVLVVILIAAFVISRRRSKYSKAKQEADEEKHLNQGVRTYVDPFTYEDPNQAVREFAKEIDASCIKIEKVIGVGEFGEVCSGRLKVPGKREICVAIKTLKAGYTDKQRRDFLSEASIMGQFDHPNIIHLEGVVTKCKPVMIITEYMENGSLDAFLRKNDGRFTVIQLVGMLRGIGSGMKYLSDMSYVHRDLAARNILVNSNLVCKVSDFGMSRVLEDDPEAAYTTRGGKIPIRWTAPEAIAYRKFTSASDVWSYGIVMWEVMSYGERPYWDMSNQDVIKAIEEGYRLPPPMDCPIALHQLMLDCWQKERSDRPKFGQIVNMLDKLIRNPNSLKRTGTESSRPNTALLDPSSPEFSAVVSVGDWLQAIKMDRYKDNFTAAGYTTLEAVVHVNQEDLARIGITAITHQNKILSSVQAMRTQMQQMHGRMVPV

MSSK1, sequence (Q9UPE1 whole entry): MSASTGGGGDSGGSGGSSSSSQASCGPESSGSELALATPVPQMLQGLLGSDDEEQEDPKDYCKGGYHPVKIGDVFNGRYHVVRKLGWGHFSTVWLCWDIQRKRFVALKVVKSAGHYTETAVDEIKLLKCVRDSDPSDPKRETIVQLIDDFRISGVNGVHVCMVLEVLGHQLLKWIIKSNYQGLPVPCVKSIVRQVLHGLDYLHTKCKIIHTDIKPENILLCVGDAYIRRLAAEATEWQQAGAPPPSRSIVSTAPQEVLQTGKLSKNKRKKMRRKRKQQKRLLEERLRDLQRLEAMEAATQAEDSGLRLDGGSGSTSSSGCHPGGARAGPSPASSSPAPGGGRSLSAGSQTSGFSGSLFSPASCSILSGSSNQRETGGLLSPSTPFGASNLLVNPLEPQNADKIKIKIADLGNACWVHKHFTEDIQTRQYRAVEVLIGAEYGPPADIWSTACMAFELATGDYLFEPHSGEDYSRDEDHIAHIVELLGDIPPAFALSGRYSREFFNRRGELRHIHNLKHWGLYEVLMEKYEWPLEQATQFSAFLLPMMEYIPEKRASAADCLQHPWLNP
HIPK2, sequence (Q9H2X6 whole entry): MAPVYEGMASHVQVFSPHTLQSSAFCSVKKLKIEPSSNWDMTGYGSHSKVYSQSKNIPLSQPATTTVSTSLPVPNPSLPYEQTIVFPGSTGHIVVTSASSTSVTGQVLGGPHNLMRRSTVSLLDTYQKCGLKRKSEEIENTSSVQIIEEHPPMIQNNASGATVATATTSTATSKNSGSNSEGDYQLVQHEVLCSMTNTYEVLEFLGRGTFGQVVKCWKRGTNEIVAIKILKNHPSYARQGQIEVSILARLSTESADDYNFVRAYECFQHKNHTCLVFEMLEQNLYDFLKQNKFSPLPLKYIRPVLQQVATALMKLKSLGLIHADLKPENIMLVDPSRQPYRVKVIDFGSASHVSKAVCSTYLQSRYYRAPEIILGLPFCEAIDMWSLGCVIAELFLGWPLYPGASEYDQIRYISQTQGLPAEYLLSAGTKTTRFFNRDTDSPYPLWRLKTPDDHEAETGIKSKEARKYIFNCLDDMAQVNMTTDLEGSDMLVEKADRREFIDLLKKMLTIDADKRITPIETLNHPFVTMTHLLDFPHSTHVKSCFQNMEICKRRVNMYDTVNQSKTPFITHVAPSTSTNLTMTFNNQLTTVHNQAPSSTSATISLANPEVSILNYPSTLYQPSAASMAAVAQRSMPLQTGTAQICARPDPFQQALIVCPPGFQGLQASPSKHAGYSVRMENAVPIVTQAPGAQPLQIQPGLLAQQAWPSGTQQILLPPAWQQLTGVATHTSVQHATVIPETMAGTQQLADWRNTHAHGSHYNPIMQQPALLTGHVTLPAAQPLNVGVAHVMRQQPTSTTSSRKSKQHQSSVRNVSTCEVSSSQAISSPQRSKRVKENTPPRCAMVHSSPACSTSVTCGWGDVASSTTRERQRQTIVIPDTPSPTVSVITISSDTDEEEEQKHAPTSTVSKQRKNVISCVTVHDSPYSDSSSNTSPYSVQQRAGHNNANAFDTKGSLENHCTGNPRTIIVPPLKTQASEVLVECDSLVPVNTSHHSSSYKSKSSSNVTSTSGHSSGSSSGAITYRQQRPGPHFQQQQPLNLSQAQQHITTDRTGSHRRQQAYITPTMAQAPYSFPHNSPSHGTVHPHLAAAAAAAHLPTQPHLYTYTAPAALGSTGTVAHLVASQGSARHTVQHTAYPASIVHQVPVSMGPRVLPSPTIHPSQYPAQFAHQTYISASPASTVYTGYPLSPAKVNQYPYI
Erk3, sequence (Q16659 whole entry): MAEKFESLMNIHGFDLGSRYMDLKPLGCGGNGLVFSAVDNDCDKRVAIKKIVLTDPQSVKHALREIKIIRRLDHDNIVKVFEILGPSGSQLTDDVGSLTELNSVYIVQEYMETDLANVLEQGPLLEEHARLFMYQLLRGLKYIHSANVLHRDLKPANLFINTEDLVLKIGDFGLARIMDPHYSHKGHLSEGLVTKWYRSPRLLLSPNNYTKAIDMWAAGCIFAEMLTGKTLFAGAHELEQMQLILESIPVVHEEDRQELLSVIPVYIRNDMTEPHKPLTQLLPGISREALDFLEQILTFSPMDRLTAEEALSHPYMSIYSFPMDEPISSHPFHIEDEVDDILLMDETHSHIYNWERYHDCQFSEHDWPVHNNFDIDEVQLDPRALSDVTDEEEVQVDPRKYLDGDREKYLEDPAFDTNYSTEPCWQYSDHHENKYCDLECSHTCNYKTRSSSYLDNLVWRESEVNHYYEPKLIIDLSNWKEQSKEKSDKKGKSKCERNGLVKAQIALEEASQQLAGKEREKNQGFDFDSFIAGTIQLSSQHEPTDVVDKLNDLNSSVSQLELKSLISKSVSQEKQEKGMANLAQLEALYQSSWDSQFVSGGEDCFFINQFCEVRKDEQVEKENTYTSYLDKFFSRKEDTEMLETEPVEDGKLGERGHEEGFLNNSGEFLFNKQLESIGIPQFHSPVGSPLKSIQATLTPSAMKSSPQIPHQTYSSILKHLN
MST4, sequence (Q9P289 whole entry): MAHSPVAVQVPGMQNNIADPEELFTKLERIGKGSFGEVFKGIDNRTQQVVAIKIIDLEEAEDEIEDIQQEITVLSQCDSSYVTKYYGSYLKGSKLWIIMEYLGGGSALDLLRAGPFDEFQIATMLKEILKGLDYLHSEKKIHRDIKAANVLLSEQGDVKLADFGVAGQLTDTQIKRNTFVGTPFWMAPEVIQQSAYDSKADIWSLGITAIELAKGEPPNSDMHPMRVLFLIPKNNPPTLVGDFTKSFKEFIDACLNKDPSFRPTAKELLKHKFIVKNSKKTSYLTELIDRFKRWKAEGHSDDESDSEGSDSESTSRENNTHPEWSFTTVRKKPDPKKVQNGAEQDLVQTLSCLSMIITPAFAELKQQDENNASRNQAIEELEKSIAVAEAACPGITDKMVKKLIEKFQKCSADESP
MST3, sequence (Q9Y6E0 whole entry): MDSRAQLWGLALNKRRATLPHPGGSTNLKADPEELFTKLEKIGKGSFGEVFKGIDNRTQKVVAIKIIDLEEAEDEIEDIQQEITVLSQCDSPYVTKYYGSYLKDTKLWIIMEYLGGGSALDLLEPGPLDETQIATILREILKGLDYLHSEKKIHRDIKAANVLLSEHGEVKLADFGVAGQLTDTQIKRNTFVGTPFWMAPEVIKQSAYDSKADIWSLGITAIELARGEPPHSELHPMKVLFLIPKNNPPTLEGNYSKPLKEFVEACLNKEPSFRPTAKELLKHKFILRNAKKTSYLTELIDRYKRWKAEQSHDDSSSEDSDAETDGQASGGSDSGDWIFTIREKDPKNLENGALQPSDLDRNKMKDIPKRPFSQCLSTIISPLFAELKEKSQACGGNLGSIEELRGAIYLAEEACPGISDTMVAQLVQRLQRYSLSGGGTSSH

Structure (SMILES): CNc1ncc2cc(-c3ccc(-c4cccc(C)n4)cc3Cl)c(=O)n(CCCCN)c2n1 [compound 20, MRLW5]
dTm MST3 (MST3): 11.7 °C
dTm MST4 (MST4): 11.4 °C
ΔTm MRLW5 (20) (Erk3): 0.5 °C

Structure (SMILES): CNc1ncc2cc(-c3ccc(-c4cccc(C)n4)cc3Cl)c(=O)n(CCC3CCNCC3)c2n1 [compound 22, 6-(2-Chloro-4-(6-methylpyridin-2-yl)phenyl)-2-(methylamino)-8-(2-(piperidin-4-yl)ethyl)pyrido[2,3-d]pyrimidin-7(8H)-one]
dTm MST3 (MST3): 10.5 °C
dTm MST4 (MST4): 7.8 °C
ΔTm 22 (MSSK1): -0.1 °C
ΔTm 22 (HIPK2): 2.3 °C
ΔTm 22 (BRPF1): -0.4 °C
ΔTm 22 (EphB1): 2.6 °C
ΔTm 22 (EphA4): 2.5 °C

Structure (SMILES): CNc1ncc2cc(-c3ccc(-c4cccc(C)n4)cc3Cl)c(=O)n(C[C@H]3CC[C@H](N)CC3)c2n1 [compound 23, 23]
dTm MST3 (MST3): 10.8 °C
dTm MST4 (MST4): 8.2 °C
ΔTm 23 (HIPK2): 2.1 °C
ΔTm 23 (BRPF1): -1.8 °C
ΔTm 23 (EphB1): 3.4 °C
ΔTm 23 (EphA4): 2.9 °C

Structure (SMILES): Cc1cccc(-c2ccc(-c3cc4cnc(NC(CO)CO)nc4n(CCCCN)c3=O)c(Cl)c2)n1 [compound 24, 8-(4-Aminobutyl)-6-(2-chloro-4-(6-methylpyridin-2-yl)phenyl)-2-((1,3-dihydroxypropan-2-yl)amino)pyrido[2,3-d]pyrimidin-7(8H)-one]
ΔTm MR24 (24) (MSSK1): -0.2 °C
ΔTm MR24 (24) (HIPK2): 0.4 °C
ΔTm MR24 (24) (BRPF1): -1.5 °C
ΔTm MR24 (24) (Erk3): 0.4 °C
ΔTm MR24 (24) (EphB1): 0.2 °C
ΔTm MR24 (24) (EphA4): -0.3 °C

Next, values leading:

ΔTm 25 (MSSK1): -0.4 °C
ΔTm 25 (HIPK2): 0.8 °C
ΔTm 25 (BRPF1): -1.4 °C
ΔTm 25 (Erk3): 1.0 °C
ΔTm 25 (EphB1): 3.0 °C
ΔTm 25 (EphA4): 1.8 °C
Structure (SMILES): Cc1cccc(-c2ccc(-c3cc4cnc(NCCCc5ccc(N)cc5)nc4n(CCCCN)c3=O)c(Cl)c2)n1 [compound 25, 8-(4-Aminobutyl)-2-((3-(4-aminophenyl)propyl)amino)-6-(2-chloro-4-(6-methylpyridin-2-yl)phenyl)pyrido[2,3-d]pyrimidin-7(8H)-one]

ΔTm MR26 (26) (MSSK1): -0.3 °C
ΔTm MR26 (26) (HIPK2): 0.4 °C
ΔTm MR26 (26) (BRPF1): -1.0 °C
ΔTm MR26 (26) (Erk3): 0.4 °C
ΔTm MR26 (26) (EphB1): 3.7 °C
ΔTm MR26 (26) (EphA4): 2.5 °C
Structure (SMILES): Cc1cccc(-c2ccc(-c3cc4cnc(NCCCN5CCOCC5)nc4n(CCCCN)c3=O)c(Cl)c2)n1 [compound 26, MR26]
